Molecular target: T1, recombinant IL4I1 (Homo sapiens, UniProt Q96RQ9)
T1 construct: purchased R&D Systems 5684-AO-020
T1 sequence (Q96RQ9 22-567): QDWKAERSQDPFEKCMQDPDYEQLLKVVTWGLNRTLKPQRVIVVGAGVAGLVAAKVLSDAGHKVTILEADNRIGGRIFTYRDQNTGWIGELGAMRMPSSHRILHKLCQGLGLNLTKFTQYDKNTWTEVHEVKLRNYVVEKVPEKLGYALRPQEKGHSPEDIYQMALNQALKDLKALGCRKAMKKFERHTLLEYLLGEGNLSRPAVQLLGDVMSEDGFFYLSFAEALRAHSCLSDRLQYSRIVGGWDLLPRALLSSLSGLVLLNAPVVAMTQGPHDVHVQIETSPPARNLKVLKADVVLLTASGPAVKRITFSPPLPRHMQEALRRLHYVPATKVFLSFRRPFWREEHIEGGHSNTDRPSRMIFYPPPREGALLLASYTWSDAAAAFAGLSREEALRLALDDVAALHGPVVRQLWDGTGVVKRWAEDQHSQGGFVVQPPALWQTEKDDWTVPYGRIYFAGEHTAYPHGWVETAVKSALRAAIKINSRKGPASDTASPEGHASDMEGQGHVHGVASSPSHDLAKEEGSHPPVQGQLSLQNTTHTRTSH
Test: IL4I1 Enzymatic Assay (Amplex Red/HRP coupled detection of H2O2, fluorescence)
Assay type: biochemical
Settings: 1 nM recombinant IL4I1; four-hour pre-incubation with compound; 1 mM each Phe, Tyr, Trp; ten-point titration
In short: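 H2O2 output was coupled to resorufin fluorescence (ex 544/em 590) via 0.05 mM Amplex Red and 1 U/mL HRP. Substrate: Phe, Tyr, Trp at 1 mM each; enzyme 1 nM, 4 h compound pre-incubation, 120 min reaction, pH 7.0 Hepes. EC50 by nonlinear four-parameter regression, 1:3 ten-point titration.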

Row | EC50 [nM] | Compound
1 | 21 | CC(C)(O)c1cc(C(=O)NCc2nnc(-c3ccccc3)s2)no1 [Example 317, 5-(2-hydroxypropan-2-yl)-N-((5-phenyl-1,3,4-thiadiazol-2-yl)methyl)isoxazole-3-carboxamide]
2 | 27 | CC(C)(C(N)=O)n1cc(C(=O)NCc2nnc(-c3ccncc3)s2)nn1 [Example 320, 1-(1-amino-2-methyl-1-oxopropan-2-yl)-N-((5-(pyridin-4-yl)-1,3,4-thiadiazol-2-yl)methyl)-1H-1,2,3-triazole-4-carboxamide]
3 | 51 | CNC(=O)C(C)(C)n1cc(C(=O)NCc2nnc(-c3ccncc3)s2)nn1 [Example 321, 1-(2-methyl-1-(methylamino)-1-oxopropan-2-yl)-N-((5-(pyridin-4-yl)-1,3,4-thiadiazol-2-yl)methyl)-1H-1,2,3-triazole-4-carboxamide]
4 | 26 | CNC(=O)C(C)(C)n1cc(C(=O)NCc2nnc(-c3ccccc3)s2)nn1 [Example 322, 1-(2-methyl-1-(methylamino)-1-oxopropan-2-yl)-N-((5-phenyl-1,3,4-thiadiazol-2-yl)methyl)-1H-1,2,3-triazole-4-carboxamide]
5 | 205 | CC(C)(O)Cn1cc(C(=O)NCc2nnc(-c3ccccc3)s2)nn1 [Example 323, 1-(2-hydroxy-2-methylpropyl)-N-((5-phenyl-1,3,4-thiadiazol-2-yl)methyl)-1H-1,2,3-triazole-4-carboxamide]
6 | 274 | Cc1ccc(-n2cc(C(=O)NCc3nnc(C4CCCCC4)s3)nn2)c(C)n1 [Example 324, N-((5-cyclohexyl-1,3,4-thiadiazol-2-yl)methyl)-1-(2,6-dimethylpyridin-3-yl)-1H-1,2,3-triazole-4-carboxamide]
7 | 274 | Cc1ccc(-n2cc(C(=O)NCc3nnc(C4CCCC4)s3)nn2)c(C)n1 [Example 325, N-((5-cyclopentyl-1,3,4-thiadiazol-2-yl)methyl)-1-(2,6-dimethylpyridin-3-yl)-1H-1,2,3-triazole-4-carboxamide]
8 | 263 | Cc1ccc(-n2cc(C(=O)NCc3ccc(C4CCCCC4)nn3)nn2)c(C)n1 [Example 326, N-((6-cyclohexylpyridazin-3-yl)methyl)-1-(2,6-dimethylpyridin-3-yl)-1H-1,2,3-triazole-4-carboxamide]
9 | 306 | CC(C)(O)c1cc(C(=O)NCc2nnc(-c3ccccc3)s2)on1 [Example 328, 3-(2-hydroxypropan-2-yl)-N-((5-phenyl-1,3,4-thiadiazol-2-yl)methyl)isoxazole-5-carboxamide]
10 | 382 | O=C(NCc1nnc(-c2ccccc2)s1)c1cn(CC(F)(F)C(=O)O)nn1 [Example 331, 2,2-difluoro-3-(4-(((5-phenyl-1,3,4-thiadiazol-2-yl)methyl)carbamoyl)-1H-1,2,3-triazol-1-yl)propanoic acid]
11 | 8 | NC(=O)C(F)(F)Cn1cc(C(=O)NCc2nnc(-c3ccccc3)s2)nn1 [Example 332, 1-(3-amino-2,2-difluoro-3-oxopropyl)-N-((5-phenyl-1,3,4-thiadiazol-2-yl)methyl)-1H-1,2,3-triazole-4-carboxamide]
12 | 6 | Cc1nc(C(N)=O)ccc1-n1cc(C(=O)NCc2nnc(-c3ccccc3)s2)nn1 [Example 333, 6-methyl-5-(4-(((5-phenyl-1,3,4-thiadiazol-2-yl)methyl)carbamoyl)-1H-1,2,3-triazol-1-yl)picolinamide]
13 | 446 | Cc1nc(C(C)(C)O)ccc1-n1cc(C(=O)NCc2nnc(-c3ccccc3)s2)nn1 [Example 334, 1-(6-(2-hydroxypropan-2-yl)-2-methylpyridin-3-yl)-N-((5-phenyl-1,3,4-thiadiazol-2-yl)methyl)-1H-1,2,3-triazole-4-carboxamide]
14 | 10 | Cc1nc(C#N)ccc1-n1cc(C(=O)NCc2nnc(-c3ccccc3)s2)nn1 [Example 335, 1-(6-cyano-2-methylpyridin-3-yl)-N-((5-phenyl-1,3,4-thiadiazol-2-yl)methyl)-1H-1,2,3-triazole-4-carboxamide]
15 | 9 | CCc1ccc(-n2cc(C(=O)NCc3nnc(-c4ccccc4)s3)nn2)c(C)n1 [Example 336, 1-(6-ethyl-2-methylpyridin-3-yl)-N-((5-phenyl-1,3,4-thiadiazol-2-yl)methyl)-1H-1,2,3-triazole-4-carboxamide]
16 | 53 | Cc1ccc(-n2cc(C(=O)NCc3nnc(-c4ccccc4)s3)nn2)c(C#N)n1 [Example 337, 1-(2-cyano-6-methylpyridin-3-yl)-N-((5-phenyl-1,3,4-thiadiazol-2-yl)methyl)-1H-1,2,3-triazole-4-carboxamide]
17 | 24 | Cc1ccc(-n2cc(C(=O)NCc3nnc(-c4ccccc4)s3)nn2)c(C(C)(C)O)n1 [Example 338, 1-(2-(2-hydroxypropan-2-yl)-6-methylpyridin-3-yl)-N-((5-phenyl-1,3,4-thiadiazol-2-yl)methyl)-1H-1,2,3-triazole-4-carboxamide]
18 | 174 | Cc1ccc(-n2cc(C(=O)NCc3nnc(-c4ccccc4)s3)nn2)c(=O)[nH]1 [Example 339, 1-(6-methyl-2-oxo-1,2-dihydropyridin-3-yl)-N-((5-phenyl-1,3,4-thiadiazol-2-yl)methyl)-1H-1,2,3-triazole-4-carboxamide]
19 | 36 | Cc1ccc(-n2cc(C(=O)NCc3nnc(-c4ccccc4)s3)nn2)c(N)n1 [Example 340, 1-(2-amino-6-methylpyridin-3-yl)-N-((5-phenyl-1,3,4-thiadiazol-2-yl)methyl)-1H-1,2,3-triazole-4-carboxamide]
20 | 271 | Cc1nc(S(C)(=O)=O)ccc1-n1cc(C(=O)NCc2nnc(-c3ccccc3)s2)nn1 [Example 341, 1-(2-methyl-6-(methylsulfonyl)pyridin-3-yl)-N-((5-phenyl-1,3,4-thiadiazol-2-yl)methyl)-1H-1,2,3-triazole-4-carboxamide]
21 | 5 | Cc1nc(N)ccc1-n1cc(C(=O)NCc2nnc(-c3ccccc3)s2)nn1 [Example 342, 1-(6-amino-2-methylpyridin-3-yl)-N-((5-phenyl-1,3,4-thiadiazol-2-yl)methyl)-1H-1,2,3-triazole-4-carboxamide]
22 | 92 | O=C(NCc1nnc(-c2ccccc2)s1)c1cn(CC2(CO)CC2)nn1 [Example 343, 1-((1-(hydroxymethyl)cyclopropyl)methyl)-N-((5-phenyl-1,3,4-thiadiazol-2-yl)methyl)-1H-1,2,3-triazole-4-carboxamide]
23 | 108 | Cc1n[nH]c(C)c1-n1cc(C(=O)NCc2nnc(-c3ccccc3)s2)nn1 [Example 346, 1-(3,5-dimethyl-1H-pyrazol-4-yl)-N-((5-phenyl-1,3,4-thiadiazol-2-yl)methyl)-1H-1,2,3-triazole-4-carboxamide]
24 | 7 | O=C(NCc1nnc(-c2ccncc2)s1)c1cn(CC(F)F)nn1 [Example 347, 1-(2,2-difluoroethyl)-N-((5-(pyridin-4-yl)-1,3,4-thiadiazol-2-yl)methyl)-1H-1,2,3-triazole-4-carboxamide]

From patent publication US20240336608A1, “IL4I1 INHIBITORS AND METHODS OF USE” (Merck Sharp & Dohme LLC, priority 2023, published 2024)
